Consider six compounds from PubChem BioAssay (NCI).

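Where inhibition never reached the appropriate level, the endpoint shown equals the highest concentration tested. Otherwise, values were interpolated linearly from a five-concentration, 48-hour dose response in 96-well plates. The concentration for full growth arrest is given as TGI.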

Some test systems named below: TK-10 renal; HOP-62 NSCLC; MOLT-4 leukemia; SF-268 CNS; A498 renal; UACC-62 melanoma; HCT-15 colon; OVCAR-3 ovarian; SK-MEL-28 melanoma; P388/ADR leukemia; DMS 273 small cell lung.
What all share (experiment): NCI tumour cell line growth inhibition, 48 h

Turning to `Cc1ccc2[nH]c(=O)c(-c3cnc(=O)[nH]n3)c(O)c2c1`, the TGI with TK-10 renal, with HOP-62 NSCLC, with MOLT-4 leukemia, in the assay with SF-268 CNS, in the assay on A498 renal and in the assay on UACC-62 melanoma was greater than 100 µM throughout. The TGI with HCT-15 colon, in the assay on OVCAR-3 ovarian and with SK-MEL-28 melanoma was greater than 100 µM throughout.

For the compound `COc1ccc(CNc2nc3ccccc3nc2-c2cccs2)cc1`, the TGI in the assay on TK-10 renal is greater than 100 µM; in the assay with HOP-62 NSCLC, greater than 100 µM; in the assay with MOLT-4 leukemia, 45.4 µM; in the assay with SF-268 CNS, greater than 100 µM; in the assay with A498 renal, greater than 100 µM; in the assay on UACC-62 melanoma, greater than 100 µM. For the same compound, the TGI with HCT-15 colon, with OVCAR-3 ovarian and in the assay on SK-MEL-28 melanoma was greater than 100 µM throughout.

Consider `CN(C)c1ccc(/C=N/NC2=N/C(=C\c3ccco3)C(=O)N2)cc1`, for which the TGI with TK-10 renal, with HOP-62 NSCLC, with MOLT-4 leukemia, in the assay on SF-268 CNS, in the assay on A498 renal and in the assay on UACC-62 melanoma was greater than 100 µM each time. Further, the TGI in the assay on HCT-15 colon, with OVCAR-3 ovarian and in the assay with SK-MEL-28 melanoma was greater than 100 µM in each case.

Take `CC(NCCS(=O)(=O)O)C(=O)O` (stereo not given): the TGI with HOP-62 NSCLC, in the assay with P388/ADR leukemia, in the assay on MOLT-4 leukemia, in the assay with SF-268 CNS, in the assay on A498 renal and in the assay with DMS 273 small cell lung was greater than 100 µM throughout. Moreover, the TGI in the assay on UACC-62 melanoma is greater than 100 µM; in the assay on HCT-15 colon it was greater than 100 µM; in the assay on OVCAR-3 ovarian, greater than 69.4 µM; with SK-MEL-28 melanoma, greater than 100 µM.

Turning to `COc1ccc(N=C/C=C/Nc2ccc(OC)cc2)cc1`, the TGI came to 27.4 µM in the assay with TK-10 renal; 12.1 µM with HOP-62 NSCLC; 22.9 µM in the assay on MOLT-4 leukemia; 21.3 µM in the assay with SF-268 CNS; 27.2 µM with A498 renal; 27.5 µM with UACC-62 melanoma. Moreover, the TGI with HCT-15 colon worked out at 14.9 µM; in the assay with OVCAR-3 ovarian, 3.45 µM; in the assay on SK-MEL-28 melanoma, 29.1 µM.

For `O=C(CCCC(=O)N1CC(CCl)c2ccc([N+](=O)[O-])cc21)N1CC(CCl)c2ccc([N+](=O)[O-])cc21` (stereo not given), the TGI with TK-10 renal, in the assay with HOP-62 NSCLC, with MOLT-4 leukemia, in the assay on SF-268 CNS, in the assay with A498 renal and with UACC-62 melanoma was greater than 100 µM throughout. Besides, the TGI in the assay on HCT-15 colon, in the assay on OVCAR-3 ovarian and in the assay with SK-MEL-28 melanoma was greater than 100 µM in each case.
